From patent US8901276B2, “Peptide reagents and methods for detection of colon dysplasia” (The Regents of the University of Michigan, priority 2010, dated 2014)

What was measured:
[1] = test system: human EMR specimens (normal mucosa, polypoid and non-polypoid dysplasia); test: Stereomicroscopic validation on EMR specimens; details: for fluorescence intensity on stereomicroscopy: 10 μmol/L, 5 min, mean±SEM
Description: Binding of the candidate or control peptide to the dysplasia on freshly resected human specimens via endoscopic mucosal resection (EMR) was validated on fluorescence stereomicroscopy. Patients with previously diagnosed polypoid and non-polypoid dysplasia who were referred for EMR were recruited. Institutional review board approval was obtained from the VA Palo Alto Health Care System, and informed consent was acquired. After resection, the specimens were rinsed in PBS 3× to remove debris and mucous. An autofluorescence image was acquired before incubating with the peptide. Then, specimens were incubated with either the FITC-labeled candidate or control peptide at a concentration of 10 μmol/L for 5 min. The unbound peptide was rinsed off with PBS 3×. The mucosal surface of the specimen was oriented face up, and a dab of ink was applied to the upper border as a landmark to register the white light and fluorescence images with histology. A white light image was collected from the specimen with and without an overlying transparent grid that contains squares with dimensions of 1×1 mm^2. Fluorescence images were collected at 500 milliseconds per frame (with the overlying grid removed) using a stereomicroscope (Olympus SZX-16 equipped with Rolera camera; Olympus Corp, Tokyo, Japan) using 477 to 500 nm excitation and 500 to 630 nm emission. A correction to the fluorescence images was performed because the intensity at the center of the image is greater than that in the periphery due to differences in distance. A fluorescence image was collected from a solution of 10 μM FITC in a plate to provide a uniform target for calibration, allowing for quantitative analysis over the entire field of view. After the fluorescence intensities were corrected, lines along the length of the specimen spaced by 2-mm intervals in each image were identified using the grid from the white light image. The mean intensity from each 1×1 mm^2 interval along this length of tissue was calculated using Matlab and compared with histology. Histopathologic interpretation was performed by a gastrointestinal pathologist (HA) who classified the specimens stained with H&E as normal colonic mucosa, dysplasia, or adenocarcinoma. The histopathologic evaluation of the EMR specimens was conducted at VA Palo Alto Health Care System (AM) and classified as either dysplasia or normal mucosa.

[2] = test system: human colonic mucosa sections (normal, dysplasia, adenocarcinoma); test: Peptide immunohistochemistry on frozen sections (Example 11); details: for target-to-background (T/B) ratio KCCFPAQ peptide vs. control peptide: frozen sections; for fluorescence intensity on immunohistochemistry: mean±SEM
Procedure: All specimens were obtained with approval from the University of Michigan Institutional Review Board (IRB). Freshly resected specimens of human colonic mucosa were frozen in OCT and sectioned with 10 μm thickness. The sections were then air dried, washed with PBS, and incubated with the FITC-labeled peptides at a concentration of 10 μM for 15 min at RT. The sections were washed 3× for 1 min in PBS and fixed with 4% paraformaldehyde for 10 min. After fixation, the sections were washed again and mounted with ProLong Gold reagent with DAPI (Invitrogen, Carlsbad, Calif.). The sections were imaged under a confocal microscope (Leica TCS SP5 Microsystems, Bannockburn, Ill.). Adjacent sections were sent for routine histology. The intensity for each image was calculated using Matlab (Mathworks, Natick, Mass.).

[3] = test system: HT29 cells; test: Flow cytometry of FITC-labeled peptides; assay type: cell-based, human; details: 10 μM, 60 min, 4° C., FITC channel
Procedure: (§1) Preferential binding of FITC-Peptide 2 to target cells was validated using flow cytometry. HT29 and Hs738.St/Int. (˜2×10^5) cells were grown, detached, and blocked as described above. These cells were incubated with the FITC-Peptide 2 or -Control peptide 2 (10 μM) for 60 min at 4° C. with continuous agitation. The cells were then washed (3×) with cold PBST followed by immediate fixing for 10 min. with 4% paraformaldehyde. The cells were washed again (1×) with PBS and resuspended in 1 mL of PBS. Flow cytometry was performed using FACSDiVa (BD® LSRII, BD Biosciences, San Jose, Calif.) and analyzed using Flowjo analysis program (Tree Star Inc., Ashland, Oreg.).
(§2) Preferential binding of the candidate peptide labeled with 5-FITC to the target and control cells was also validated using flow cytometry. HT29 and Hs738.St/Int. (˜2×10^5) cells were grown, detached, and blocked, as described above. These cells were incubated with the 5-FITC labeled candidate or control peptide (10 μM) for 60 min at 4° C. with continuous agitation. The cells were then washed 3× with cold PBST followed by immediate fixation for 10 min with 4% paraformaldehyde. The cells were washed again with PBS and resuspended in 1 mL of PBS. Flow cytometry was performed using FACSDiVa (BD® LSRII, BD Biosciences, San Jose, Calif.) and analyzed using Flowjo analysis program (Tree Star Inc. Ashland, Oreg.).

[4] = test system: Hs738.St/Int. cells; test: Flow cytometry of FITC-labeled peptides; assay type: cell-based, human; details: 10 μM, 60 min, 4° C.
Procedure: as §1, §2

**Q.** How did the “T/B flat adenoma to adjacent normal mucosa” value [1] turn out when “KCCFPAQ-FITC [FITC-Peptide 2, KCCFPAQ with FITC at the C-terminus on the side chain of lysine residue via GGGSK linker]” was run?
**A.** The value was roughly 2.0 fold.

**Q.** And the “T/B polypoid adenoma to adjacent normal mucosa” value [1]?
**A.** Its value is 1.8.

**Q.** What about the “fluorescence intensity on stereomicroscopy” value ([1]; non-polypoid dysplasia) of the same substance?
**A.** The value was 85.1±19.2 AU.

**Q.** And the “fluorescence intensity on stereomicroscopy” value ([1]; normal mucosa)?
**A.** The value was 43.5±10.7 AU.

**Q.** And the “fluorescence intensity on stereomicroscopy” value ([1]; polypoid dysplasia)?
**A.** The value was 78.6±12.8 AU.

**Q.** And the “binding to adenocarcinoma compared to normal mucosa” value [2]?
**A.** Its value is 3.1 times.

**Q.** And the “binding to adenocarcinoma relative to dysplasia” value [2]?
**A.** Its value is 1.5 fold.

**Q.** And the “binding to normal colonic mucosa” value ([2]; 10 μM, 15 min, RT)?
**A.** Its value is “no binding”.

**Q.** And the “staining of dysplasia and adenocarcinoma” value ([2]; 10 μM, 15 min, RT)?
**A.** Its value is “consistently stains”.

**Q.** What about the “target-to-background (T/B) ratio KCCFPAQ peptide vs. control peptide” value ([2]; adenocarcinoma) of the same substance?
**A.** The value was 3.6.

**Q.** And the “fluorescence intensity on immunohistochemistry” value ([2]; adenocarcinoma)?
**A.** The value was 31.5±6.0 AU.

**Q.** What about the “target-to-background (T/B) ratio KCCFPAQ peptide vs. control peptide” value ([2]; dysplasia) of the same substance?
**A.** Its value is 3.1.

**Q.** What about the “fluorescence intensity on immunohistochemistry” value ([2]; dysplasia) of the same substance?
**A.** Its value is 21.1±3.8 AU.

**Q.** And the “target-to-background (T/B) ratio KCCFPAQ peptide vs. control peptide” value ([2]; normal mucosa)?
**A.** The value was 2.0.

**Q.** And the “fluorescence intensity on immunohistochemistry” value ([2]; normal mucosa)?
**A.** The value was 10.1±3.6 AU.

**Q.** And the “total HT29 cell population bound” value [3]?
**A.** The value was “About 97%”.

**Q.** What about the “total HT29 cell population bound” value ([3]; listed as KCCFPAQ peptide) of the same substance?
**A.** The value was 97%.

**Q.** And the “binding to Hs738.St/Int. cells on flow cytometry” value [4]?
**A.** The value was “bound minimally”.
